pIC50, pKd: −log10 of the molar value. “And” between values parts separate entries of the source, which are not always exact repeats. Equal entries are not always repeated.
Experiments:
[1] = test system: VEGF-induced migration of HUVECs; experiment: VEGF-induced HUVEC migration assay; format: cell-based, human; conditions: for pIC50: VEGF 10 ng/mL, 22 hours, read-out: IC50 for blocking VEGF-induced migration
Description: After 22 hours, quantitation of cell migration/invasion was achieved by post-labeling cells in the insert plates with a fluorescent dye and measuring the fluorescence of the invading/migrating cells in a fluorescent plate reader. The VEGF-induced migration was calculated by subtracting the migration that occurred when only basal medium was placed in the lower chamber of the wells.
(§1) Serum-starved HUVECs were placed, 100,000 cells per well, into the upper chambers of BD fibronectin-coated FluoroBlok 24-well insert plates. […] After 22 hours, quantitation of cell migration/invasion was achieved by post-labeling cells in the insert plates with a fluorescent dye and measuring the fluorescence of the invading/migrating cells in a fluorescent plate reader. The VEGF-induced migration was calculated for each experimental condition by subtracting the amount of migration that occurred when only basal medium was added to the lower chamber of the wells.
as §1, with “reader.” for “reader. The”, “observed in” for “that occurred when only basal medium was added to”, “absence” for “lower chamber”, “VEGF.” for “the wells.”
as §1, with “VEGF-stimulated” for “The VEGF-induced”, “derived” for “calculated for each experimental condition”, “basal migration measured in the absence” for “amount”, “VEGF.” for “migration that occurred when only basal medium was added to the lower chamber of the wells.”
Serum-starved HUVECs were placed, 100,000 cells per well, into the upper chambers of BD fibronectin-coated FluoroBlok 24-well insert plates. […] After 22 hours, quantitation of cell migration/invasion was achieved by post-labeling cells in the insert plates with a fluorescent dye and measuring the fluorescence of the invading/migrating cells in a fluorescent plate reader.

[2] = test system: SW-480 human colon carcinoma cells; experiment: In vivo inhibition of tumor growth, SW-480 xenograft in nude mice; conditions: for Tumor Weights: 6 mg/kg IV
Description: Female athymic nude mice (Crl:NU/NU-nuBR) at 6-8 weeks of age were used in this study. […] Test Articles and vehicle were administered intraperitoneally (IP), Cisplatin was administered intravenously (IV). Tumor measurements were recorded twice weekly using hand-held calipers. Mice were monitored daily for signs of toxicity and morbidity. At study termination, animals were euthanized by carbon dioxide overdose and necropsied for tissue collection.
A total of nine (9) groups were used in this study. Each group contained ten (10) tumor-bearing mice. Groups 1 and 2 contained untreated and vehicle treated negative control mice, respectively. […] Group 9 contained mice that received cisplatin, a standard chemotherapeutic compound as a positive control.
Dosing began the same day that animals were randomly sorted into groups (Study Day 7). Each dose was removed from the dose vial using aseptic technique for each animal and the injection site was wiped with an alcohol swab prior to dose administration. Doses were administered with a 1.0 mL syringe and a 27-gauge×½″ needle for each mouse
The Test Article- and vehicle-treated mice received daily intraperitoneal (IP) injections for 15 days. Cisplatin was administered every other workday for a total of five (5) doses via an intravenous route.
Clinical Observations of each animal were performed and recorded at least once daily for toxicity, morbidity and mortality. Morbidity included signs of illness such as, but not limited to, emaciation, dehydration, lethargy, hunched posture, unkempt appearance, dyspnea and urine or fecal staining.
In accordance with the protocol tumor measurements were taken twice weekly throughout the study by measuring the length and width of tumors with calibrated calipers. […] Tumor weights were calculated using the following formula: mg=(L×W^2)/2. Animals were euthanized either when mean tumor weight was ≧1000 mg per group over two (2) consecutive measurements, or if tumors became ulcerated, impaired the animal's ability to ambulate or obtain food and water.

[3] = test system: KDR-expressing NMU-induced mammary tumor; experiment: Contrast ultrasound with D5-containing microbubbles to monitor sunitinib treatment of NMU-induced tumors; format: in vivo, rat; conditions: for Area *10 (tumor size, fundamental B-mode): sunitinib 40 mg/kg/day from day 106, values multiplied by 10
Description: Four (4) female OFA rats (Charles River, Lyon, France) were investigated. At the specific age of 42 days, animals received intraperitoneal injection of N-methyl-N-nitrosourea 50 mg/kg (NMU, Sigma-Aldrich, ref D3254) prepared in 0.9% NaCl, in order to develop a KDR-expressing tumor in the animals (see latency period infra). […] Animals received food and water (tap water) ad libitum.
Stock solution was made weekly and stored at 4° C.
At the level of the tumor site, skin was gently shaved and an ultrasound coupling gel (Aquasonic 100, Parker, USA) was applied between the clinical ultrasound probe and the skin.
The linear probe L12-5 was used.
Vials of a contrast agent containing D5 were reconstituted in 2 ml glucose 5%. […] Emulsification was effected at 12′000 rpm (five minutes). The lyophilizate was reconsistituted as described above. The contrast agent was quickly injected through the catheter placed in the caudal vein at the dose of 2 μl gas per kg. […] Injections were performed at a constant rate of 4 ml/min.
Tumor size was assessed in fundamental-B mode […].
Contrast enhancement was quantified from Dicom files using an in-house quantification and providing, among other parameters, mean echo-signal values in areas of interest as a function of time. The amplitude of the echo signal was expressed as linearized echo amplitude values. Individual frames were analyzed, time-intensity curves were generated and Maximum intensity (Imax) was determined as an index of tumor vascularization and late phase opacification (LPO) was determined at 10 min after injection in the median plane of the tumor.

[4] = biological target: KDR/VEGF complex on KDR-transfected 293H cells (Homo sapiens, UniProt P35968)
Description: Another stock solution was prepared in the same manner, but lacking VEGF. […] The mixtures were incubated on a rotator at 4 C for 60 minutes, followed by addition of 50 μL of soft release avidin-sepharose (50% slurry in ddH2O) to remove excess peptides and another incubation for 30 minutes on a rotator at 4 C. Finally, the soft release avidin-sepharose was pelleted by centrifuging at 12,000 rpm for 5 minutes at room temperature, and the resulting supernatants were used for the assays.
This establishes a utility for the assay as useful for targeting the KDR/VEGF complex in vitro and in vivo for diagnostic or therapeutic purposes.

[5] = biological target: T1, KDR-expressing 293H cells (Homo sapiens, UniProt P35968); experiment: Bead-binding assay with peptide-conjugated fluorescent beads; format: cell-based; conditions: KDR- versus mock-transfected 293H cells, 40% FBS
T1 construct: Both PCR products were digested with Not1 and ligated together to create the full-length receptor; V5-His (of vector pcDNA6/V5-His C); expressed in transfected cells; host or cells: 293H cells (Invitrogen cat. #11631), transient, lipofectamine 2000
Description: The following procedures were performed to assess the ability of KDR-binding peptides to bind to KDR-expressing cells. In this procedure, KDR-binding peptides containing SEQ ID NOS:264, 337, 363, and 373 were conjugated to fluorescent beads, and their ability to bind to KDR-expressing 293H cells was assessed. The experiments show these peptides can be used to bind particles such as beads to KDR-expressing sites.
As a positive control, biotinylated anti-KDR antibody was incubated with the Neutravidin-coated beads as above, except that 0.03 mg of the biotinylated antibody preparation in PBS (Gibco #14190-136) was used instead of peptide solution. Beads can be stored at 4° C. until needed for up to 1 week.
From the above bead preparations, 0.12 mL was spun for 10 minutes at 2000 rpm in a microcentrifuge at room temperature. The supernatant was removed and 0.06 mL of MES pH 6.0 was added. Each bead solution was then vortexed and sonicated in a water bath 15 min. […] The plates were then read on a Packard FluoroCount fluorometer at excitation 550 nm/emission 620 nm. […]
To calculate the number of beads bound per well, a standard curve with increasing numbers of the same fluorescent beads was included in each assay plate. The standard curve was used to calculate the number of beads bound per well based on the fluorescence intensity of each well.

[6] = biological target: T2, KDR expressed in transiently-transfected 293H cells (Homo sapiens, UniProt P35968); experiment: Binding of biotinylated peptide/neutravidin-HRP complexes to KDR-transfected 293H cells; format: cell-based; conditions: for Binding of tetrameric peptide/avidin-HRP complexes to KDR-transfected cells: 3.33 nM complex; for Reduction of binding of peptide/avidin HRP complex in presence of serum: 40% rat serum, single concentration 2.22-6.66 nM
T2 construct: Both PCR products were digested with Not1 and ligated together to create the full-length receptor; V5-His (of vector pcDNA6/V5-His C); expressed in transfected cells; host or cells: 293H cells (Invitrogen cat. #11631), transient, lipofectamine 2000

KDR = experiment: KD, B (μM)
Description: Head of the field: KD, B (μM)
Where the first naming reader finds the target: passage: truncated polypeptides tested for binding to KDR-expressing cells.

## 5 CF-Gly-N{[CH2CH2C(═O)-Gly-N(CH2CH2C(═O)-Adoa-Thr-Lys-Pro-Pro-Arg-OH]2}2 [Adjunct A]
[1]; 100 nM alone
  Block of VEGF-induced migration: not by 100 nM Adjunct A alone

## N.N.[Cl][Pt][Cl] [Cisplatin, reference compound]
[2]; Group 9, intravenous, five doses
  Mean tumor weight on Study Day 22: 995 mg

## N.N.[Cl][Pt][Cl] [Cisplatnin]
[2]; day 4 after cell injection
  Tumor Weights: 34 mg
[2]; day 7 after cell injection
  Tumor Weights: 160 mg
[2]; day 8 after cell injection
  Tumor Weights: 173 mg
[2]; day 11 after cell injection
  Tumor Weights: 407 mg
[2]; day 14 after cell injection
  Tumor Weights: 675 mg
[2]; day 20 after cell injection
  Tumor Weights: 635 mg
[2]; day 21 after cell injection
  Tumor Weights: 839 mg
[2]; day 22 after cell injection
  Tumor Weights: 995 mg

## CC(C)c1cc(/C=C(\C#N)C(=O)NCCCc2ccccc2)cc(C(C)C)c1O [SU-1498, reference compound]
[1]; 3 micromolar
  VEGF-induced migration blocked: 47%

## CCN(CC)CCNC(=O)c1c(C)[nH]c(/C=C2\C(=O)Nc3ccc(F)cc32)c1C [sunitinib, Sunitinib]
[3]; 48 hours after treatment, 40 mg/kg/day oral, individual rats, 40 mg/kg/day
  Change of tumor size as a percentage of the tumor prior sunitinib treatment: −4.6% and −0.7% and 30%
[3]; 48 hours after treatment, individual rats no. 1, 2, 3
  Change of Imax: −11% and +23% and +11%
[3]; rat no. 1, day 108
  Area *10 (tumor size, fundamental B-mode): 20.80
[3]; rat no. 1, day 115
  Area *10 (tumor size, fundamental B-mode): 11.00
[3]; rat no. 1, day 116
  Area *10 (tumor size, fundamental B-mode): 10.10
[3]; rat no. 2, day 108
  Area *10 (tumor size, fundamental B-mode): 26.70
[3]; rat no. 2, day 109
  Area *10 (tumor size, fundamental B-mode): 20.20
[3]; rat no. 3, day 108
  Area *10 (tumor size, fundamental B-mode): 7.5
[3]; rat no. 3, day 114
  Area *10 (tumor size, fundamental B-mode): 2.9
[3]; rat no. 3, day 116
  Area *10 (tumor size, fundamental B-mode): 3.0

## AGPGPCKGYMPHQCWYMGTGGGK [SEQ ID NO:321]
[4]; KDR- versus mock-transfected cells
  Binding of peptide-125I-neutravidin complex in the presence of VEGF: specifically bound to KDR-transfected 293H cells
[4]; VEGF omitted
  Binding of peptide-125I-neutravidin complex in the absence of VEGF: not where VEGF was omitted

## AGPKWCEEDWYYCMITGTGGGK [SEQ ID NO:264]
[5]
  Binding of peptide-conjugated fluorescent beads, JJ spacer: enhanced binding to KDR cells
[6]
  Binding of tetrameric peptide/avidin-HRP complexes to KDR-transfected cells: bound to KDR-transfected cells significantly better than to mock-transfected cells
  Reduction of binding of peptide/avidin HRP complex in presence of serum: not significantly affected

## AGPTWCEDDWYYCWLFGTGGGK [SEQ ID NO:277]
[6]
  Reduction of binding of peptide/avidin HRP complex in presence of serum: more than 50%

## Ac-AGPTWCEDDWYYCWLFGTGGGK (SEQ ID NO:277){Ac-GDSRVCWEDSWGGEVCFRYDPGGGK (SEQ ID NO:294)[JJ-Glut-NH(CH2)4-(S)—CH(NH2)C(═O)—]—NH2}—NH2 [D25]
[1]
  pIC50: 8.30

## Ac-AQDWYYDEILJGRGGRGGRGGK (SEQ ID NO:478) {K[Ac-VCWEDSWGGEVCFRYDPGGGK (SEQ ID NO:337) (JJ-Glut)-NH2]}—NH2 [D17]
[1]
  pIC50: ~6.60

## Ac-AQDWYYDEILSMADQLRHAFLSGGGGGK [SEQ ID NO:356]
[6]
  Reduction of binding of peptide/avidin HRP complex in presence of serum: not significantly affected

## GDSRVCWEDSWGGEVCFGGGK [compound 369]
KDR
  pKd: 5.89

## GDSRVCWEDSWGGEVCFRYDPGGGK [SEQ ID NO:294]
[5]
  Binding of peptide-conjugated fluorescent beads, JJ spacer: significantly improved the specific binding to KDR
[6]
  Binding of tetrameric peptide/avidin-HRP complexes to KDR-transfected cells: bound to KDR-transfected cells significantly better than to mock-transfected cells
  Reduction of binding of peptide/avidin HRP complex in presence of serum: not significantly affected

## GDSRVCWEDSWGGEVCFRYGGGK [compound 372]
KDR
  pKd: 7.22

## SRVCWEDSWGGEVCFRYGGGGK [compound 371]
KDR
  pKd: 7.46

## VCWEDSWGGEVCFGGGK [compound 368]
KDR
  pKd: 6.04

Reference: patent US9408926B2, “KDR and VEGF/KDR binding peptides and their use in diagnosis and therapy” (Bracco Suisse S.A., priority 2002, dated 2016)
